This note sets out measurements from paper PMC13186263 (The Journal of organic chemistry, 2020).

Test [1] addresses PKCα (Homo sapiens, UniProt P17252). Description: biochemical. The test is classed as binding.
Test [2] deals with PKCβI (Homo sapiens, UniProt P05771). Kind of test: PKC binding assay, competition with 3H-PDBu.
The target in test [3] is PKCδ (Homo sapiens, UniProt Q05655). Kind of test: PKC binding assay, competition with 3H-PDBu.
The target in test [4] is T1, PKCε (Homo sapiens, UniProt Q02156).
T1 sequence (Q02156 1-737): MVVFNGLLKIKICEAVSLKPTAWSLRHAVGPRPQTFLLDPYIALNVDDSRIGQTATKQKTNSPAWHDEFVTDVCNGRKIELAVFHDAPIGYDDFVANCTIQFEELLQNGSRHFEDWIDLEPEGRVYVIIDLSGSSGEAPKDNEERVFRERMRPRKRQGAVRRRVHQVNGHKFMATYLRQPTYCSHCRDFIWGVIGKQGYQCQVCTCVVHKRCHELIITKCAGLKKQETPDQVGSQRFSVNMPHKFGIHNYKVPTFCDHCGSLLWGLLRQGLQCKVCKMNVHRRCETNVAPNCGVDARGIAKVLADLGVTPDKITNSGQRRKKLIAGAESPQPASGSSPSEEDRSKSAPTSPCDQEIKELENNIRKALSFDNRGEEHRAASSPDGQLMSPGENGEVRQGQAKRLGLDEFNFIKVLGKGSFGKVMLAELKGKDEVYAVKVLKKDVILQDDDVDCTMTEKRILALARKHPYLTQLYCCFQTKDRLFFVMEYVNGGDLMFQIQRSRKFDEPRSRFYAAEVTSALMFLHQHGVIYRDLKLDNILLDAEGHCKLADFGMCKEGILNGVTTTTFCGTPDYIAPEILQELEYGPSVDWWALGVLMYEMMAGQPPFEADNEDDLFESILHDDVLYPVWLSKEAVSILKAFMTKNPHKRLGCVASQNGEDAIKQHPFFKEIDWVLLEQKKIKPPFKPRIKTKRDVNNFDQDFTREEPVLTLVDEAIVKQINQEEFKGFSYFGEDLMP
Kind of test: PKC binding assay, competition with 3H-PDBu.

Test [5] deals with PKCθ (Homo sapiens, UniProt Q04759). Kind of test: PKC binding assay, competition with 3H-PDBu.
For test [6], the system named is PKC isoforms. Kind of test: Cell-free competitive PKC binding, statements across isoforms. Also on record: species or system human. The settings on record: five PKC isoforms.

The structures appear in SMILES notation. pKi: −log10 of the molar value.

PKCθ, sequence (Q04759 whole entry, canonical isoform): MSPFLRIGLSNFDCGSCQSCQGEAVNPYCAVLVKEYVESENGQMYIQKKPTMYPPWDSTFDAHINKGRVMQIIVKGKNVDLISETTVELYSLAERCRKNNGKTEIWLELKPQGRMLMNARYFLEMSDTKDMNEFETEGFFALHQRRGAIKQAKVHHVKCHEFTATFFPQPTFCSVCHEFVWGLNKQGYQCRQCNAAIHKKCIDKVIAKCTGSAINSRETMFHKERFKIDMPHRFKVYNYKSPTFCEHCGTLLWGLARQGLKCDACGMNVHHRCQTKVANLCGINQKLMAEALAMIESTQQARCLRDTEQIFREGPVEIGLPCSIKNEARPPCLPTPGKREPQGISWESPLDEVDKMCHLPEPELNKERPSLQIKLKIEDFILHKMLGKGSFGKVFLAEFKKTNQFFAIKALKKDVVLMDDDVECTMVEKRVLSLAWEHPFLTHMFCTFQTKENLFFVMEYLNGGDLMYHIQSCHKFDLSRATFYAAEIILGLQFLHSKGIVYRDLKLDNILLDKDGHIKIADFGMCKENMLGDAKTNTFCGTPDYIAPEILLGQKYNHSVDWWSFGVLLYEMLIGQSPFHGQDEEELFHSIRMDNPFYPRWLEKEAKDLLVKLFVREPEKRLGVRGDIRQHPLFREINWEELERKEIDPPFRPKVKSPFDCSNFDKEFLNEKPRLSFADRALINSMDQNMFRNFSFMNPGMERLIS
PKCδ, sequence (Q05655 whole entry): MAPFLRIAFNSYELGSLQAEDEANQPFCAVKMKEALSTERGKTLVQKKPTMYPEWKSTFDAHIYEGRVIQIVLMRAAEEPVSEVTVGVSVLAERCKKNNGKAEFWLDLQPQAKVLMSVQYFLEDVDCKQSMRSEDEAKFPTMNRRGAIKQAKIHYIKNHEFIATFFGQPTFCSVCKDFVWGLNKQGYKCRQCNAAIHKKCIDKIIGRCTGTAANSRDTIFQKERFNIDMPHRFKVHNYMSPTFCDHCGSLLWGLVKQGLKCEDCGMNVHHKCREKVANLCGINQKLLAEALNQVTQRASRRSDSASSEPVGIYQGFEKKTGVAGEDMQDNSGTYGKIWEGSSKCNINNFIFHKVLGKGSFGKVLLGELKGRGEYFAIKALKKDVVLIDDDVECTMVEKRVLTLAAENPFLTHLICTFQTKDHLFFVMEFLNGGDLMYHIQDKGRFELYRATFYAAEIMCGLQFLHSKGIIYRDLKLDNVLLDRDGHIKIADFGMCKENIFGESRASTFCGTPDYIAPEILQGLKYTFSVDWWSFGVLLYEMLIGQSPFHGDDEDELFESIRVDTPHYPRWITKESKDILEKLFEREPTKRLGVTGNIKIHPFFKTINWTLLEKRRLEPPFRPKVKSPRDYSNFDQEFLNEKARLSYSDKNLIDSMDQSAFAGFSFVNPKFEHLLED
PKCβI, sequence (P05771 whole entry): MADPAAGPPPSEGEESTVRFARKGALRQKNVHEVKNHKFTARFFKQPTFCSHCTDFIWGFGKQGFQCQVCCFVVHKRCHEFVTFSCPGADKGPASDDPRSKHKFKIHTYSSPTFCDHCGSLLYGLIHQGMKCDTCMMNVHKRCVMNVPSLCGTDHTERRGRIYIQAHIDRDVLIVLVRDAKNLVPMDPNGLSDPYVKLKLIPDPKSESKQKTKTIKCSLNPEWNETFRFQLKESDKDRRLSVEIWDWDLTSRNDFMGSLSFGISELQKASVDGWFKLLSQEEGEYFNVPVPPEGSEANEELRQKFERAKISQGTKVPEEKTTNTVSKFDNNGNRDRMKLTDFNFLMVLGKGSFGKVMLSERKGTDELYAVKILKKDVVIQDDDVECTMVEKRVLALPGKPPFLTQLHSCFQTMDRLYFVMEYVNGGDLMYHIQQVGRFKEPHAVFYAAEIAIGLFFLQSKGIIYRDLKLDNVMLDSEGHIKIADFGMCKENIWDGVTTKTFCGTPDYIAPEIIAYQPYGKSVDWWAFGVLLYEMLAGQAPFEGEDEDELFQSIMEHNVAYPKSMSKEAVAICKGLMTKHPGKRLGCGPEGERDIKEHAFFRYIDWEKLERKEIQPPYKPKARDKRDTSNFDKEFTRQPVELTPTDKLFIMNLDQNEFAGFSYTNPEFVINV

Consider `CCCCCCCC(=O)O[C@H]1/C(=C/C(=O)OC)C[C@H]2C[C@H](CO)OC(=O)CCCC(=O)OCC(C)(C)[C@]1(O)O2` [7a, (1S,3R,13S,14S,E)-13-Hydroxy-3-(hydroxymethyl)-15-(2-methoxy-2-oxoethylidene)-12,12-dimethyl-5,9-dioxo-4,10,17-trioxabicyclo[11.3.1]heptadecan-14-yl Octanoate], for which the pKi – broadly, the Ki on a negative log10 scale, so that one unit is a factor of ten – was 8.36 in test [1]; 8.40 in test [2]; 8.77 in test [3]; 8.57 in test [4]; 8.82 in test [5]. Also, in test [6], the “PKC binding affinities” value is “comparable to bryostatin”.
On to `CCC/C=C/C=C/C(=O)O[C@H]1/C(=C/C(=O)OC)C[C@H]2C[C@H]([C@@H](C)O)OC(=O)C[C@H](O)C[C@@H]3C[C@H](OC(C)=O)C(C)(C)[C@](O)(C[C@@H]4C/C(=C/C(=O)OC)C[C@H](/C=C/C(C)(C)[C@]1(O)O2)O4)O3` [bryostatin 1, Bryostatin 1, reference compound], for which the results for the negative-log Ki (pKi) in test [4] and in test [5] were 8.52 and 8.82, respectively.
With `CCCCCCCC(=O)O[C@H]1/C(=C/C(=O)OC)C[C@H]2C[C@H]([C@@H](C)O)OC(=O)CCCC(=O)OCC(C)(C)[C@]1(O)O2` [7b, (1S,3R,13S,14S,E)-13-Hydroxy-3-((R)-1-hydroxyethyl)-15-(2-methoxy-2-oxoethylidene)-12,12-dimethyl-5,9-dioxo-4,10,17-trioxabicyclo[11.3.1]heptadecan-14-yl Octanoate], the “PKC binding affinities” value in test [6] is given as “strongly attenuated binding affinity relative to the des-methyl compound 7a”.
